# Measurements published in ChEMBL document CHEMBL4184120, “Target ROS to induce apoptosis and cell cycle arrest by 5,7-dimethoxy-1,4-naphthoquinone derivative” (Bioorg Med Chem Lett, 2018).
# Assays:
# HeLa = experiment: Antiproliferative activity against human HeLa cells after 48 hrs by MTT assay; format: functional, cell-based
# HepG2 = experiment: Antiproliferative activity against human HepG2 cells after 48 hrs by MTT assay; format: functional, cell-based; settings: HepG2, 48 h
# A549 = experiment: Antiproliferative activity against human A549 cells after 48 hrs by MTT assay; format: functional, cell-based; settings: A549, 48 h
# NCI-H460 = experiment: Antiproliferative activity against human NCI-H460 cells after 48 by hrs MTT assay; format: functional, cell-based
# HL-60 [1] = experiment: Antiproliferative activity against human HL60 cells after 48 hrs by MTT assay; format: functional, cell-based; settings: HL-60, 48 h
# HL-60 [2] = experiment: Induction of apoptosis in human HL60 cells assessed as early apoptotic cells at 5 mM after 48 hrs by Annexin V-FITC/propidium iodide staining based flow cytometry (reference value: 3.13%); format: functional
# HL-60 [3] = experiment: Induction of apoptosis in human HL60 cells assessed as late apoptotic cells at 5 mM after 48 hrs by Annexin V-FITC/propidium iodide staining based flow cytometry (reference value: 1.23%); format: functional
# HL-60 [4] = experiment: Cell cycle arrest in human HL60 cells assessed as accumulation at G0/G1 phase at 5 mM after 48 hrs by propidium iodide staining based assay (reference value: 50.88%); format: functional
# HL-60 [5] = experiment: Cell cycle arrest in human HL60 cells assessed as accumulation at S phase at 5 mM after 48 hrs by propidium iodide staining based assay (reference value: 46.44%); format: functional
# HL-60 [6] = experiment: Cell cycle arrest in human HL60 cells assessed as accumulation at G2/M phase at 5 mM after 48 hrs by propidium iodide staining based assay (reference value: 2.68%); format: functional
# K562 = experiment: Antiproliferative activity against human K562 cells after 48 hrs by MTT assay; format: functional, cell-based; settings: K562, 48 h
# WI-38 = experiment: Antiproliferative activity against human WI38 cells after 48 hrs by MTT assay; format: cell-based; settings: WI-38, 48 h
# [7] = Selectivity index, ratio of IC50 for human WI38 cells to IC50 for human HL60 cells; format: toxicity; settings: WI38 cells and HL60 cells, read-out: Ratio IC50
SMILES,IC50 (HeLa) [µM],IC50 (HepG2) [µM],IC50 (A549) [µM],IC50 (NCI-H460) [µM],IC50 (HL-60 [1]) [µM],IC50 (K562) [µM],Activity (HL-60 [2]) [%],Activity (HL-60 [3]) [%],Activity (HL-60 [4]) [%],Activity (HL-60 [5]) [%],Activity (HL-60 [6]) [%],IC50 (WI-38) [µM],selectivity ratio [7]
CC(=O)N[C@@H](CS)C(=O)O [ACETYLCYSTEINE],–,–,–,–,–,–,1.56,2.43,57.36,40.12,2.52,–,–
COc1cc(OC)c2c(c1)C(=O)C(O)=C(C)C2=O,90.2,> 100,> 100,> 100,> 100,–,–,–,–,–,–,–,–
COc1ccc(CCC2=C(O)C(=O)c3cc(OC)cc(OC)c3C2=O)cc1,72.8,60.7,82.4,97.5,93.1,–,–,–,–,–,–,–,–

# Further molecules by falling IC50 (HeLa), results first:
IC50 (HeLa) [µM],IC50 (HepG2) [µM],IC50 (A549) [µM],IC50 (NCI-H460) [µM],IC50 (HL-60 [1]) [µM],IC50 (K562) [µM],SMILES,Activity (HL-60 [2]) [%],Activity (HL-60 [3]) [%],Activity (HL-60 [4]) [%],Activity (HL-60 [5]) [%],Activity (HL-60 [6]) [%],IC50 (WI-38) [µM],selectivity ratio [7]
70.2,37.4,> 100,43.1,55.9,–,COC1=C(CCC2CCCCC2)C(=O)c2c(OC)cc(OC)cc2C1=O,–,–,–,–,–,–,–
29.3,37.1,83.1,> 100,15.3,19.2,COc1ccc(CCC2=C(Cl)C(=O)c3cc(OC)cc(OC)c3C2=O)cc1,–,–,–,–,–,26.8,1.8
